Experimental findings from US20180332847A1, “ANTIMICROBIAL METAL CARBOXYLATE-BENZISOTHIAZOLINONE MIXTURES” (Troy Corporation, priority 2017, published 2018) are described below.

Holding throughout (assay type): cell-based
For assay [1], the system named is Alternaria alternata. In words: Minimum Inhibitory Concentration (MIC) by spiral plater / spiral gradient endpoint against Alternaria alternata. As to the method: (§1) Synergistic Index=Qa/QA+Qb/QB [Equation No. 1] • where Qa=the quantity of component A used in a binary mixture that gives the desired effect • QA=the quantity of component A which when used alone gives the desired effect • Qb=the quantity of component B used in a binary mixture that gives the desired effect • QB=the quantity of component B which when used alone gives the desired effect
(§2) Minimum Inhibitory Concentration (“MIC”) for each of the antimicrobial compositions was determined against a test microbe, which in this case was a spore suspension of the fungus Alternaria alternata, with the aid of an Autoplate 4000 spiral plater that is commercially available from Spiral Biotech, Inc., Norwood, Mass., and its accompanying spiral gradient endpoint software (hereinafter referred to as “the SGE software”). The spiral plater automates the normal serial dilution method for determining MICs. Although the details of the SGE software are held confidentially by Spiral Biotech, Inc., they are believed to consistent with the principles set forth in “Measurement of MICs of antibacterial agents by spiral gradient endpoint compared with conventional dilution method” J. H. Paton, H. A. Holt, and M. J. Bywater—Int. J. Exp. Clin. Chemother, 1990.
Spore suspensions for the test microbe were prepared by growing Alternaria alternata on a Difco malt agar slant in an incubator for 1 week at 28° C. Spores were loosened by adding a small amount of buffer solution at pH 7.0 and scraping with a sterile nichrome wire loop. This process was repeated twice. The buffer solution included phosphate buffer and magnesium chloride, and was obtained commercially from Thomas Scientific Company, as Lot #023-0703.
Loosened spores were removed from the slant by aseptically pouring them into a sterile bottle containing 30 ml of the buffer solution and a volume of approximately 40 ml of 6 mm diameter borosilicate glass beads. The bead bottle was shaken to disperse the spores and adjusted to a final liquid volume of 50 ml. For use as a test inoculum, spore density was adjusted in distilled water blanks to that of a 0.5 McFarland nephelometer standard.
(§3) The spiral plater automatically applied 54.3 micro-liters of each antimicrobial composition of interest to the surface of 150 millimeter malt agar plates using an exponential application gradient. The concentration of the antimicrobial concentration was greatest near the center of the Petri plates and decreased toward the edges. Antimicrobial composition gradients were allowed to air dry at room temperature for 1 to 4 hours at 23° C. before inoculation with test microbe. Spiral gradient plates were inoculated by streaking with cotton swabs that had been soaked in test microbe spore suspension. Streaks were applied in a radial pattern, using a paper template generated by the SGE software to guide the application. Eight radii were inoculated per Petri plate. Each radius is considered as one replicated observation.
(§4) Inoculated spiral gradient plates were incubated for 48 hours in an incubator at 28° C. Visible growth of the test microbe developed along the radial streaks and ended where the concentration of the antimicrobial composition was sufficient to prevent growth. This growth endpoint value (expressed in mm as measured from center point of the Petri plate) was used to calculate MIC for the mixture, expressed as parts per million.
Utilizing the procedure described above in Example 1, Minimum Inhibitory Concentration (“MIC”) for each of the antimicrobial compositions was determined against a test microbe, which in this case was a spore suspension of the […] Alternaria alternata.

The subject of assay [2] is Saccharomyces cervisiae. In words: Minimum Inhibitory Concentration (MIC) by spiral plater / spiral gradient endpoint against Saccharomyces cervisiae. The settings on record: quantity of BIT used alone that gives the desired effect; calcium gluconate-BIT series; Saccharomyces cervisiae. As to the method:
as §1
Minimum Inhibitory Concentration (“MIC”) for each of the antimicrobial compositions was determined against a test microbe, which in this case was a spore suspension of the fungus Alternaria alternata, with the aid of an Autoplate 4000 spiral plater that is commercially available from Spiral Biotech, Inc., Norwood, Mass., and its accompanying spiral gradient endpoint software (hereinafter referred to as “the SGE software”). […]
Inoculated spiral gradient plates were incubated for 48 hours in an incubator at 28° C. […] This growth endpoint value (expressed in mm as measured from center point of the Petri plate) was used to calculate MIC for the mixture, expressed as parts per million.
Utilizing the procedure described above in Example 1, Minimum Inhibitory Concentration (“MIC”) for each of the antimicrobial compositions was determined against a test microbe, which in this case was a spore suspension of the yeast Saccharomyces cervisiae. […]

Assay [3] has as its system Pseudomonas aeruginosa. The experiment in a line: Minimum Inhibitory Concentration (MIC) by spiral plater / spiral gradient endpoint against Pseudomonas aeruginosa. The settings on record: quantity of BIT used alone that gives the desired effect, Pseudomonas aeruginosa. The procedure:
as §1, §2, §3, §4
Utilizing the procedure described above in Example 1, Minimum Inhibitory Concentration (“MIC”) for each of the antimicrobial compositions was determined against a test microbe, which in this case was a spore suspension of the bacterium Pseudomonas aeruginosa. Several antimicrobial compositions containing calcium gluconate, BIT, or both in water were investigated, as shown below in Table 7.
Utilizing the procedure described above in Example 1, Minimum Inhibitory Concentration (“MIC”) for each of the antimicrobial compositions was determined against a test microbe, which in this case was a […] Pseudomonas aeruginosa. Several antimicrobial compositions containing calcium glycerate, BIT, or both in water were investigated, as shown below in Table 13.
Utilizing the procedure described above in Example 1, Minimum Inhibitory Concentration (“MIC”) of certain antimicrobial compositions was determined against a test microbe, which in this case was a spore suspension of the bacterium Pseudomonas aeruginosa. Several antimicrobial compositions containing zinc gluconate, BIT, or both in water were investigated, as shown below in Table 19.

For `O=c1[nH]sc2ccccc12` [BIT, 1,2-benzisothiazol-3(2H)-one], the QB in assay [1] (MIC of BIT alone for Alternaria alternata, used for SI (zinc ethylhexanoate series)) is 13 ppm; in assay [1] (MIC of BIT alone for Alternaria alternata, used for SI (zinc glycerate series)), 8.3 ppm; in assay [1] (quantity of BIT used alone that gives the desired effect, calcium ethylhexanoate-BIT series, Alternaria alternata) it was 13 ppm; in assay [1] (quantity of BIT used alone that gives the desired effect, calcium gluconate-BIT series, Alternaria alternata), 13 ppm; in assay [1] (quantity of BIT used alone that gives the desired effect, calcium glycerate-BIT series, Alternaria alternata), 85 ppm; in assay [2], 61 ppm. In addition, the QB in assay [3] (calcium gluconate-BIT series) was 85 ppm; in assay [3] (calcium glycerate-BIT series), 27.5 ppm; in assay [3] (zinc gluconate-BIT series) it was 661 ppm. For the same compound, the “ppm of BIT alone providing the same inhibition” value in assay [1] (zinc ethylhexanoate-BIT series, Alternaria alternata) turned out to be 13 ppm; in assay [1] (zinc glycerate-BIT series, Alternaria alternata), 8.3 ppm.
